Source: US9464064B2, “HCV helicase inhibitors and methods of use thereof” (University of Kansas, priority 2011, dated 2016)
Where two headings read alike, the source gives them in different places.

Key:
NS3h_2a(JFH1) = target: T1, NS3h_2a(JFH1) (Hepatitis C virus genotype 2a, UniProt Q99IB8); experiment: MBHA, DNA substrate, genotype 2a helicase; assay type: biochemical, hepatitis C virus genotype 2a(JFH1)
T1 construct: truncated C-terminally His-tagged NS3 proteins lacking the N-terminal protease, called NS3h; His-tag (C); made in house
Method: All oligonucleotides were purchased from Integrated DNA Technologies (IDT, Coralville, Iowa). Primuline derivatives were synthesized and purified as described herein. Three different NS3 proteins were used in this study. Two were truncated C-terminally His-tagged NS3 proteins lacking the N-terminal protease, called NS3h, the third was a full-length NS3 with the portion of NS4A needed for protease activation fused to its N-terminus, called scNS4A-NS3 (Howe, et al. (1999) Protein Sci. 8:1332-41), and the fourth was a 23 kDa scNS4A-NS3 protease fragment lacking the helicase domains, called scNS4A-NS3p (Protein One, Rockville, Md.). NS3h was expressed from two different HCV strains. NS3h_1b(con1) was from the con1 strain of genotype 1b (GENBANK accession AB114136), and NS3h_2a(JFH1) was from the JFH1 strain of HCV genotype 2a (GENBANK accession AJ238799). […] His-tagged recombinant NS3h_1b(con1), NS3h_2a(JFH1), and scNS4A-NS3 (also from genotype 1b(con1)) were expressed, and purified as previously described (Frick, et al. (2010) supra; Lam, et al. (2003) J. Virol. 77:3950-3961). The scNS4A-NS3p (genotype 1b) was from Protein One. A plasmid expressing NS3h from dengue virus strain 2 (NS3h_DV2)(GENBANK accession 2BMF) is known in the art (Xu, et al. (2005) J. Virol. 79:10278-10288), and used to express and purify NS3h_DV2 (Belon, et al. (2010) supra)
Compounds that specifically target less conserved regions of a HCV protein are often not potent inhibitors of the same protein derived from other genotypes, and they might be susceptible to rapid evolution of related viruses. As described herein, primuline derivatives can inhibit HCV helicase isolated from the genotype 1b(con1) strain. Therefore to further analyze specificity, the subset of primuline analogs was tested on the helicase isolated from the genotype 2a(JFH1) strain. The two recombinant proteins differ at 83 of their 480 amino acids. The JHF1 strain is also of interest because it serves as the backbone for HCV strains capable of replicating in cell culture (Wakita, et al. (2005) Nat. Med. 11:791-796). The molecular beacon-based helicase assay (MBHA) (Belon & Frick (2008) supra) was used to measure the ability of each compound to inhibit DNA unwinding catalyzed by NS3h isolated from genotype 2a(JFH1) (NS3h_2a(JFH1)). […] Selected compounds were also tested for the ability to inhibit helicase reactions catalyzed by full-length NS3 and a single chain NS4A-NS3 protein (scNS4A-NS3) described below and used for protease assays.

Huh-7.5 cells = experiment: Cell viability assay ([…]-GLO); assay type: cell-based, human; settings: for Cell viability (% viable): 10 μM compound, triplicate, average ± SD
Method: To assess compound toxicity toward Huh-7.5 cells, cells were plated and treated as above and cell viability was assessed using the […]-GLO luminescent cell viability kit (PROMEGA) following the manufacturer's instructions. Briefly, at the end of a 72 hour incubation period, the medium was aspirated and the cells were washed with 1×PBS, then an equal volume of growth medium and […]-GLO reagent was added and the lysis was initiated by mixing on an orbital shaker. The plate was incubated at 23° C. for 30 minutes and the luciferase activity was measured for 1 second using the FLUOSTAR Omega microplate reader (BMG Labtech).

MBHA DNA substrate = experiment: Modified FID assay, SYBR Green I; assay type: binding; settings: for DNA binding (%): SYBR Green I-FID, average (±SD) percent bound at 100 μM; for FID (SG) % Displaced @ 100 μM / EC50: SYBR Green; for EC50: read-out: FID (SG) EC50 (converted)
Method: A modified FID assay, in which ethidium bromide was replaced with SYBR Green I (Invitrogen), was used to estimate a compounds affinity for the MBHA substrate. Reactions were performed as described above except that the DNA substrate was present at 0.32 μM, ethidium bromide was absent, and SYBER Green was present at (0.68 μM). Data were normalized as described above and fit to concentration-response equation using GraphPad Prism software. Titrations with each compound were performed in triplicate, and EC50 values from three independent titrations are reported ±standard deviations.

[1] = target: T2, E. coli SSB-Cy5-dT15 complex (Escherichia coli, UniProt P0AGE0); experiment: Escherichia coli SSB Cy5-dT15 binding assay (fluorescence polarization); settings: for inhibition at 100 µM: read-out: SSB % Displaced @ 100 μM
T2 construct: purchased Promega
Outline: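 Fluorescence polarization with 5 nM Cy5-dT15 and 20 nM E. coli SSB in 25 mM MOPS pH 7.5, 1.25 mM MgCl2, BSA, Tween 20, DTT. Screening at 1% DMSO; IC50 runs at 5% DMSO. Excitation 635 nm, parallel and perpendicular emission at 667 nm.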

[2] = Target Potency MBHA (IC50 avg., μM) 2a (JFH1), genotype 2a (JFH1)
[3] = DNA-based MBHA, genotype 2a(JFH1), read-out: DNA Helicase NS3h_2a IC50 (μM) ± SD
[4] = genotype 2a (JFH1), read-out: Target Potency MBHA (IC50 avg., μM) 2a (JFH1) (converted)
[5] = disruption of Cy5-dT15-SSB complex, read-out: Cy5-dT15-SSB Binding IC50

T2 sequence (P0AGE0 2-178, one chain of several): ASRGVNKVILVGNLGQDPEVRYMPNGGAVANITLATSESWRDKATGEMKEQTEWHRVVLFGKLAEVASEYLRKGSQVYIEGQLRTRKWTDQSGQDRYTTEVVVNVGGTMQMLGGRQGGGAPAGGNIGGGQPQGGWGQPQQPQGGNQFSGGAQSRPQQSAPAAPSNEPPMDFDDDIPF
T1 sequence (Q99IB8 1196-1661): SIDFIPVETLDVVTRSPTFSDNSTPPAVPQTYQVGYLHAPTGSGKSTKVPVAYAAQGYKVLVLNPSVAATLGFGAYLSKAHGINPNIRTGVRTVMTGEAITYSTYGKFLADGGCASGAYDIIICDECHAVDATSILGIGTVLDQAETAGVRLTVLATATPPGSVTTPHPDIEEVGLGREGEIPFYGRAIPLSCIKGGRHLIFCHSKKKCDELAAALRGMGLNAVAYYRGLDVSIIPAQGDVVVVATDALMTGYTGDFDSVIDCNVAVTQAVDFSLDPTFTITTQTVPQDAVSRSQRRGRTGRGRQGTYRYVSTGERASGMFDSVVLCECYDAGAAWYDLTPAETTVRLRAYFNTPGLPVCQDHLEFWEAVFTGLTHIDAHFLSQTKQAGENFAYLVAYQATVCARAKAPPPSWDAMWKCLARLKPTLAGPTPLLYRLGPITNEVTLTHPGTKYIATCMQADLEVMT

SMILES	IC50 (NS3h_2a(JFH1); [2]) [µM]	Cell Viability (% @ 10 μM) (Huh-7.5 cells) [%]	Cell viability (% viable) (Huh-7.5 cells) [%]	DNA binding (%) (MBHA DNA substrate)	FID (SG) % Displaced @ 100 μM (MBHA DNA substrate) [%]	EC50 (MBHA DNA substrate) [µM]	EC50 [1] [µM]	IC50 [1] [µM]	inhibition at 100 µM [1] [%]	IC50 (NS3h_2a(JFH1); [3]) [µM]	IC50 (NS3h_2a(JFH1); [4]) [µM]	IC50 [1, 5] [µM]	EC50 ([1]; read-out: SSB EC50) [µM]
Cc1ccc2nc(-c3ccc4nc(-c5ccc(NC(=O)c6ccc(Cl)cc6)cc5)sc4c3)sc2c1S(=O)(=O)O [Compound 10, 2′-(4-(4-chlorobenzamido)phenyl)-6-methyl-[2,6′-bibenzo[d]thiazole]-7-sulfonic acid]	2.3 ± 0.5	84 ± 6	84 ± 6	67 ± 17	67 ± 17	31 ± 15	46 ± 52	46 ± 52	80	–	–	–	–
Cc1ccc2nc(-c3ccc4nc(-c5ccc(NC(=O)c6ccc(C(C)(C)C)cc6)cc5)sc4c3)sc2c1S(=O)(=O)O [Compound 13, 2′-(4-(4-(tert-butyl)benzamido)phenyl)-6-methyl-[2,6′-bibenzo[d]thiazole]-7-sulfonic acid]	–	87 ± 4	87 ± 4	72 ± 19	72 ± 19	16 ± 6	–	–	80	5 ± 0.7	5 ± 0.7	32 ± 7	32 ± 7
Cc1ccc2nc(-c3ccc4nc(-c5ccc(NC(=O)c6ccc(N(C)C)cc6)cc5)sc4c3)sc2c1S(=O)(=O)O [Compound 14, 2′-(4-(4-(dimethylamino)benzamido)phenyl)-6-methyl-[2,6′-bibenzo[d]thiazole]-7-sulfonic acid]	–	94 ± 5	94 ± 5	44 ± 4	44 ± 4	> 100	–	–	98	–	6.4 ± 1.2	4 ± 1	4 ± 1
Cc1ccc2nc(-c3ccc4nc(-c5ccc(NC(=O)c6ccc(C(F)(F)F)c(F)c6)cc5)sc4c3)sc2c1S(=O)(=O)O [Compound 23, 2′-(4-(3-fluoro-4-(trifluoromethyl)benzamido)phenyl)-6-methyl-[2,6′-bibenzo[d]thiazole]-7-sulfonic acid]	–	129 ± 2	129 ± 2	66 ± 18	66 ± 18	28 ± 28	–	–	92	–	13 ± 2	10 ± 1	10 ± 1
Cc1ccc2nc(-c3ccc4nc(-c5ccc(NC(=O)c6cc(F)cc(C(F)(F)F)c6)cc5)sc4c3)sc2c1S(=O)(=O)O [Compound 27, 2′-(4-(3-fluoro-5-(trifluoromethyl)benzamido)phenyl)-6-methyl-[2,6′-bibenzo[d]thiazole]-7-sulfonic acid]	–	113 ± 1	113 ± 1	48 ± 17	48 ± 17	> 100	–	–	23	–	15.8 ± 2.2	–	> 100
Cc1ccc2nc(-c3ccc4nc(-c5ccc(NC(=O)Nc6ccccc6)cc5)sc4c3)sc2c1S(=O)(=O)O.N [Compound 52]	–	108 ± 4	–	–	46 ± 2	> 100	–	–	95	–	6	6 ± 1	6
Cc1ccc2nc(-c3ccc4nc(-c5ccc(NC(=O)c6ccc(Cl)c(Cl)c6)cc5)sc4c3)sc2c1S(=O)(=O)O [Compound 18, 2′-(4-(3,4-dichlorobenzamido)phenyl)-6-methyl-[2,6′-bibenzo[d]thiazole]-7-sulfonic acid]	–	114 ± 7	114 ± 7	67 ± 12	67 ± 12	30 ± 32	–	–	53	–	4.5 ± 1	128 ± 57	> 100
COc1ccc(NC(=O)Nc2ccc(-c3nc4ccc(-c5nc6ccc(C)c(S(=O)(=O)O)c6s5)cc4s3)cc2)cc1 [Compound 55]	–	99 ± 9	–	–	55 ± 6	73	–	–	95	–	6.4	4 ± 1	4
COc1ccc(C(=O)Nc2ccc(-c3nc4ccc(-c5nc6ccc(C)c(S(=O)(=O)O)c6s5)cc4s3)cc2)cc1 [Compound 8, 2′-(4-(4-methoxybenzamido)phenyl)-6-methyl-[2,6′-bibenzo[d]thiazole]-7-sulfonic acid]	5.4 ± 1.4	85 ± 5	85 ± 5	35 ± 10	35 ± 10	> 100	2 ± 1	2 ± 1	92	–	–	–	–
Cc1ccc2nc(-c3ccc4nc(-c5ccc(NC(=O)c6ccc(CNC(=O)OCC7c8ccccc8-c8ccccc87)cc6)cc5)sc4c3)sc2c1S(=O)(=O)O.N [Compound 41]	–	102 ± 6	–	–	53 ± 25	56	–	–	59	–	4.6	57 ± 16	57
Cc1ccc2nc(-c3ccc4nc(-c5ccc(NC(=O)c6ccc(N)cc6)cc5)sc4c3)sc2c1S(=O)(=O)O [Compound 6, 2′-(4-(4-aminobenzamido)phenyl)-6-methyl-[2,6′-bibenzo[d]thiazole]-7-sulfonic acid]	–	93 ± 4	93 ± 4	63 ± 15	63 ± 15	55 ± 13	–	–	99	5 ± 2.5	5.3 ± 2.5	2 ± 1	3 ± 1
CC(=O)Nc1ccc(-c2nc3ccc(-c4nc5ccc(C)c(S(=O)(=O)O)c5s4)cc3s2)cc1 [Compound 30, 2′-(4-acetamidophenyl)-6-methyl-[2,6′-bibenzo[d]thiazole]-7-sulfonic acid]	–	102 ± 9	100 ± 6	48 ± 5	48 ± 5	> 100	–	–	89	–	> 100	17 ± 4	17
Cc1ccc2nc(-c3ccc(NC(=O)c4ccc(NC(=O)c5ccc(NC(=O)OCC6c7ccccc7-c7ccccc76)cc5)cc4)cc3)sc2c1S(=O)(=O)O.N [Compound 51]	–	113 ± 5	–	–	22	> 100	–	–	–	–	1.9	7 ± 3	7
